This passage reports Activity, inhibition and IC50 results from ChEMBL document CHEMBL5321216, “Discovery of bipyridine amide derivatives targeting pRXRα-PLK1 interaction for anticancer therapy” (Eur J Med Chem, 2023).

The term IC50 denotes the midpoint of a concentration-inhibition curve.

Activity calls are given as the source filed them. The rule behind the calls is not given here.

The subject of assay [1] is MDA-MB-231. Kind of assay: Antiproliferative activity against human MDA-MB-231 cells assessed as cell viability rate at 5 uM incubated for 72 hrs by MTT assay relative to control. Type of assay: functional. Background: Tetrazolium assays rely on reduction of a dye to a coloured formazan, in cell work by metabolically active cells.
Another assay has as its system A549. Kind of assay: Antiproliferative activity against human A549 cells assessed as cell viability rate at 5 uM incubated for 72 hrs by MTT assay relative to control. The format is functional.
A further assay relates to HepG2. Kind of assay: Antiproliferative activity against human HepG2 cells assessed as cell viability rate at 5 uM incubated for 72 hrs by MTT assay relative to control. Type of assay: functional.
In assay [2] the target is T1, Retinoic acid receptor RXR-alpha (Homo sapiens) (UniProt P19793).
T1 sequence (whole entry): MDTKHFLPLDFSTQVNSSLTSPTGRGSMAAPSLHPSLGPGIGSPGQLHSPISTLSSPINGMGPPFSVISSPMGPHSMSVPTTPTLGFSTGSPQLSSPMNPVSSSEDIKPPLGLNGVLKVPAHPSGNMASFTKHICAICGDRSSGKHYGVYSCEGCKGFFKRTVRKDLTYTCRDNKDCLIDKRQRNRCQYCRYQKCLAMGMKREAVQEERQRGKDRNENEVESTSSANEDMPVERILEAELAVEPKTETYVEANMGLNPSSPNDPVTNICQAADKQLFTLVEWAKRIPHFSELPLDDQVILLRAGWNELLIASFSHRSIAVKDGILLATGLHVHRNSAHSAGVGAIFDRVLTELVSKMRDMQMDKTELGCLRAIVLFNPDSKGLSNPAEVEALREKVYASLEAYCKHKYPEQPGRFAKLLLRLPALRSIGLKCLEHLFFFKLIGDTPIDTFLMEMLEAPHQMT
Kind of assay: Antagonist activity at RXRalpha (unknown origin) transfected in human HeLa cells assessed as inhibition of CD3254- induced receptor transactivation by measuring remaining luciferase activity at 1 uM incubated for 24 hrs by dual luciferase reporter assay. Type of assay: cell-based. The conditions noted are these: filed as antagonist. In general terms: Reporter assays use an easily measured gene product as a stand-in for the process of interest.

Assay [3] concerns MDA-MB-231. Kind of assay: Antiproliferative activity against human MDA-MB-231 cells assessed as inhibition of cell proliferation incubated for 72 hrs by MTT assay. The format is functional, cell-based. The following applies: MDA-MB-231, 72 h.
Assay [4] has as its target T1, Retinoic acid receptor RXR-alpha (Homo sapiens). Kind of assay: Antagonist activity at RXRalpha (unknown origin) transfected in human HeLa cells assessed as inhibition of CD3254- induced receptor transactivation by measuring remaining luciferase activity at 1 uM incubated for 24 hrs by dual luciferase reporter assay relative to control. The conditions noted are these: filed as antagonist. Type of assay: cell-based.

In the case of `COc1cccc(CC(=O)Nc2ccc(-c3ccnc(N4CCN(C)CC4)c3)cn2)c1`, the results for the Activity with MDA-MB-231 [1], in the assay with A549 and in the assay with HepG2 were 99.26%, 103.91% and 85.3%, respectively.

In the case of `COc1cccc(CC(=O)Nc2cc(-c3ccnc(N4CCC(CO)CC4)c3)ccn2)c1`, the Activity with MDA-MB-231 [1] was 72.35%; in the assay on A549 it was 94.17%; in the assay on HepG2, 92.25%. The inhibition entry in assay [2] is “Active”.

In the case of `Cc1ccc(CC(=O)Nc2ccc(-c3ccnc(N(C)CCO)c3)cn2)cc1`, the Activity turned out to be 96.17% with MDA-MB-231 [1], 100.97% with A549 and 87.52% in the assay with HepG2.

For the molecule `Cc1cccc(/C=C/C(=O)Nc2ccc(-c3ccnc(N4CCC(CO)CC4)c3)cn2)c1`, the Activity with MDA-MB-231 [1] is listed as 38.51%; with A549, 41%; in the assay on HepG2, 38.09%.

For `O=C(/C=C/c1cccc(F)c1)Nc1ccc(-c2ccnc(N3CCC(CO)CC3)c2)cn1`, the Activity with MDA-MB-231 [1] is 51.3%; in the assay with A549, 42.31%; in the assay on HepG2, 31.25%.

On to `CN(CCO)c1cc(-c2ccc(NC(=O)Cc3cccc(F)c3)nc2)ccn1`, for which the Activity in the assay on MDA-MB-231 [1] turned out to be 101.43%; in the assay with A549 it was 92.91%; with HepG2, 91.54%.

In the case of `Cc1cccc(CC(=O)Nc2ccc(-c3ccnc(N(C)CCO)c3)cn2)c1`, the Activity in the assay with MDA-MB-231 [1] amounted to 51.81%; in the assay on A549, 93.2%; in the assay with HepG2 it was 89.85%.

As for `O=C(/C=C/c1cccc(F)c1)Nc1cc(-c2ccnc(N3CCC(CO)CC3)c2)ccn1`, the IC50 with MDA-MB-231 [3] was 44 nM. Besides, the values for the Activity in the assay on MDA-MB-231 [1], with A549 and in the assay with HepG2 were 31.06%, 55.98% and 46.35%, respectively. For the same molecule, in assay [2], the inhibition entry is “Active”.

`Cc1ccc(CC(=O)Nc2ccc(-c3ccnc(N4CCC(C)CC4)c3)cn2)cc1`: the Activity is 76.9% in the assay on MDA-MB-231 [1], 91.24% with A549 and 88.24% with HepG2. Further, the inhibition result in assay [2] is “Active”.

Regarding `O=C(Cc1cccc(F)c1)Nc1cc(-c2ccnc(N3CCC(CO)CC3)c2)ccn1`, the values for the Activity with MDA-MB-231 [1], in the assay on A549 and in the assay on HepG2 were 82.84%, 98.62% and 88.95%, respectively. Moreover, in assay [2], the inhibition result is “Active”.

For the molecule `Cc1cccc(CC(=O)Nc2cc(-c3ccnc(N4CCC(C)CC4)c3)ccn2)c1`, the Activity is given as 93.87% with MDA-MB-231 [1], 108.84% in the assay with A549 and 106.32% with HepG2. In addition, in assay [2], the inhibition result was “Active”.

Turning to `Cc1cccc(/C=C/C(=O)Nc2cc(-c3ccnc(N4CCC(CO)CC4)c3)ccn2)c1`, the IC50 in the assay on MDA-MB-231 [3] stood at 2610 nM. For the same molecule, the Activity with MDA-MB-231 [1] was 34.47%; in the assay with A549, 53.6%; in the assay on HepG2, 27.5%. Also, the inhibition entry in assay [2] is “Active”.

Turning to `CN1CCN(c2cc(-c3ccc(NC(=O)Cc4cccc(F)c4)nc3)ccn2)CC1`, the Activity with MDA-MB-231 [1] is 87.66%; with A549, 113.37%; in the assay with HepG2, 84.3%.

With `COc1cccc(CC(=O)Nc2ccc(-c3ccnc(N(C)CCO)c3)cn2)c1`, the Activity in the assay on MDA-MB-231 [1] amounted to 96.96%; with A549, 93.45%; with HepG2 it was 86.14%.

For the molecule `COc1cccc(CC(=O)Nc2ccc(-c3ccnc(N4CCC(C)CC4)c3)cn2)c1`, the IC50 in the assay with MDA-MB-231 [3] turned out to be 3190 nM. The Activity is reported as 47.74% with MDA-MB-231 [1], 80.24% in the assay with A549 and 55.19% in the assay on HepG2. Moreover, the inhibition entry in assay [2] is “Active”.

Regarding `CC1CCN(c2cc(-c3ccc(NC(=O)Cc4cccc(F)c4)nc3)ccn2)CC1`, the half-inhibitory concentration (IC50) in the assay with MDA-MB-231 [3] was determined as 1460 nM. For the same molecule, the Activity in the assay with MDA-MB-231 [1] was determined as 44.58%; in the assay on A549, 64.69%; in the assay with HepG2, 59.64%. The inhibition entry in assay [2] is “Active”.

On to `O=C(/C=C/c1ccccc1)Nc1ccc(-c2ccnc(N3CCC(CO)CC3)c2)cn1`, for which the Activity in the assay with MDA-MB-231 [1] is 40.55%; with A549, 52.67%; in the assay with HepG2, 31.76%.

As to `Cc1cccc(CC(=O)Nc2cc(-c3ccnc(N4CCC(CO)CC4)c3)ccn2)c1`, the Activity in the assay on MDA-MB-231 [1] came to 46.82%; in the assay with A549 it was 73.92%; with HepG2 it was 60.73%. Besides, the inhibition result in assay [2] was “Active”.

On to `Cc1ccc(CC(=O)Nc2ccc(-c3ccnc(N4CCC(CO)CC4)c3)cn2)cc1`, for which the Activity came to 54.12% with MDA-MB-231 [1], 72.28% in the assay on A549 and 51.27% in the assay with HepG2. Also, the inhibition entry in assay [2] was “Active”.

As for `O=C(CCc1ccccc1)Nc1cc(-c2ccnc(N3CCC(CO)CC3)c2)ccn1`, the IC50 with MDA-MB-231 [3] was determined as 879 nM. Moreover, the Activity in the assay on MDA-MB-231 [1] is given as 25.7%; in the assay on A549 it was 62.19%; in the assay with HepG2, 37.04%. The inhibition entry in assay [2] was “Active”.

Consider `COc1cccc(CC(=O)Nc2ccc(-c3ccnc(N4CCC(CO)CC4)c3)cn2)c1`, for which the IC50 with MDA-MB-231 [3] was 7360 nM. Besides, the Activity was 34.49% with MDA-MB-231 [1], 77.14% with A549, 27.89% in the assay on HepG2 and less than 50% in assay [4].

On to `COc1cccc(CC(=O)Nc2cc(-c3ccnc(N4CCC(C)CC4)c3)ccn2)c1`, for which the Activity with MDA-MB-231 [1] is reported as 83.56%; in the assay on A549, 114.18%; with HepG2 it was 110.22%. For the same molecule, the inhibition result in assay [2] was “Active”.

As to `O=C(Cc1cccc(F)c1)Nc1ccc(-c2ccnc(N3CCC(CO)CC3)c2)cn1`, the IC50 in the assay with MDA-MB-231 [3] worked out at 3500 nM. In addition, the Activity is 36.36% with MDA-MB-231 [1], 58.17% in the assay on A549, 65.95% in the assay on HepG2 and less than 50% in assay [4].

For the molecule `Cc1ccc(CC(=O)Nc2ccc(-c3ccnc(N4CCN(C)CC4)c3)cn2)cc1`, the Activity in the assay on MDA-MB-231 [1] was 85.44%; with A549, 103.32%; in the assay with HepG2 it was 98.32%. Besides, the inhibition result in assay [2] was “Active”.

As for `Cc1cccc(CC(=O)Nc2ccc(-c3ccnc(N4CCC(CO)CC4)c3)cn2)c1`, in the assay on MDA-MB-231 [3], the IC50 was found to be 2020 nM. Also, the Activity in the assay with MDA-MB-231 [1] was 32.19%; in the assay on A549 it was 63.99%; in the assay on HepG2 it was 29.6%; in assay [4], less than 50%.

`Cc1cccc(CC(=O)Nc2ccc(-c3ccnc(N4CCN(C)CC4)c3)cn2)c1`: the Activity was 112.17% with MDA-MB-231 [1], 126.23% in the assay on A549, 86.83% with HepG2 and less than 50% in assay [4].

As to `Cc1cccc(CC(=O)Nc2ccc(-c3ccnc(N4CCC(C)CC4)c3)cn2)c1`, in the assay on MDA-MB-231 [3], the IC50 is 1480 nM. Also, the Activity was 44.06% in the assay on MDA-MB-231 [1], 75.58% in the assay on A549, 42.4% in the assay on HepG2 and less than 50% in assay [4].

As for `CC1CCN(c2cc(-c3ccnc(NC(=O)Cc4cccc(F)c4)c3)ccn2)CC1`, the Activity in the assay on MDA-MB-231 [1] turned out to be 91.09%; with A549 it was 103.8%; in the assay with HepG2, 93.8%. The inhibition result in assay [2] was “Active”.
